Results reported in patent publication US20250171434A1, “SEC61 INHIBITORS AND USE THEREOF” (KEZAR LIFE SCIENCES, INC., priority 2022, published 2025).
pEC50, pIC50: −log10 of the molar value. Like-named read-outs stand apart in the source and are kept apart here.

Tests used:
[1] = system: multiple myeloma cell line U266B1; test: U266 Cell Viability Assay; assay type: cell-based; settings: Homo sapiens; for pEC50: U-266, U266B1 cells, 48 hours, Celltiter-Glo, read-out: 48 hr U266 Viability Celltiter-Glo: Mean EC50
Outline: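 U266B1 multiple myeloma cells in RPMI 1640/10% FBS were treated with compound dilutions for 48 h at 37 °C, 5% CO2. Viability was measured by CellTiter-Glo luminescence; compounds drawn without stereochemistry were tested as stereoisomer mixtures.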

[2] = system: PD1-ss+10aa/Gaussia Luciferase; test: Dox-Induced PD1-ss-Gluc Assay; assay type: cell-based
Outline: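 Doxycycline-induced expression of a PD1-ss+10aa/Gaussia luciferase reporter is measured in stable Flp-In 293 T-REx cells. Compound dilutions containing doxycycline are added one day after plating and incubated at 37 °C, 5% CO2. Values for unassigned stereocentres refer to stereoisomer mixtures.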

[3] = system: HER3-ss+4aa/Gaussia Luciferase; test: Dox-Inducible Her3-ss-Gluc Assay; assay type: cell-based
Description: Flp-In 293 T-REx™ cells were transfected with pcDNA™5/FRT/TO plasmid inserted with cDNA encoding Gaussia Luciferase fused to the 3′ end of cDNA encoding HER3 signal sequence plus 4 amino acids (N-[…]-C) (SEQ ID NO: 2). Transfected cells were selected for resistance to the selectable markers Hygromycin and Blasticidin to create a stable cell line that contained the HER3-ss+4aa/Gaussia Luciferase cDNA insert whose expression was regulated under the T-REx™ system. The day before assay, cells were trypsinized and plated in 384-well tissue culture plates. The next day, compound dilutions in DMSO/media containing doxycycline were added to the wells and incubated at 37° C., 5% CO2.
(§1) For chemical structures that include one or more stereoisomers, but are illustrated without indicating stereochemistry, the assay data refers to a mixture of stereoisomers.

[4] = Liver Microsome Stability Assay, monkey; assay type: in vitro ADME; settings: monkey liver microsomes 1.0 mg/mL, 1.0 uM compound, 37° C., 1 mM NADPH
Outline: (§2)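 Compound at 1.0 uM (0.4% DMSO) was incubated at 37° C with 1.0 mg/mL liver microsomes in 0.1 M potassium phosphate, with or without 1 mM NADPH. Samples were quenched at 0 and 30 minutes.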

[5] = Liver Microsome Stability Assay, human; assay type: in vitro ADME; settings: human liver microsomes 1.0 mg/mL, 1.0 uM compound, 37° C., 1 mM NADPH
Outline: as §2

[6] = Liver Microsome Stability Assay, mouse; assay type: in vitro ADME; settings: mouse liver microsomes 1.0 mg/mL, 1.0 uM compound, 37° C., 1 mM NADPH
Outline: as §2

[7] = system: IL-2-FL/Gaussia Luciferase; test: Dox Inducible IL2-FL-Gluc Assay; assay type: cell-based
Outline: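 Stable Flp-In 293 T-REx cells carrying doxycycline-inducible full-length IL-2 (aa 1-153) fused to Gaussia luciferase, plated the day before assay. Compound dilutions added in medium containing doxycycline, incubated at 37 °C, 5% CO2. Undefined stereocentres mean data refer to stereoisomer mixtures.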

[8] = system: TNFα-FL/Gaussia Luciferase; test: Dox Induced TNFα-FL-Gluc Assay; assay type: cell-based
Description: Flp-In 293 T-REx™ cells were transfected with pcDNA™5/FRT/TO plasmid inserted with cDNA encoding Gaussia Luciferase fused to the 3′ end of cDNA encoding full length TNFα (amino acids 1-233). Transfected cells were selected for resistance to the selectable markers Hygromycin and Blasticidin to create a stable cell line that contained the TNFα-FL/Gaussia Luciferase cDNA insert whose expression was regulated under the T-REx™ system. The day before assay, cells were trypsinized and plated in 384-well tissue culture plates. The next day, compound dilutions in DMSO/media containing doxycycline were added to the wells and incubated at 37° C., 5% CO2.
as §1

[9] = system: multiple myeloma cell line NCI-H929; test: H929 Cell Viability Assay; assay type: cell-based, human; settings: Homo sapiens; for pEC50: NCI-H929 cells, 48 hours, Celltiter-Glo, read-out: 48 hr H929 Viability Celltiter-Glo: Mean EC50
Outline: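 NCI-H929 cells in RPMI 1640 with 10% FBS were treated with compound dilutions for 48 h at 37° C, 5% CO2. Viability was read by CellTiter-Glo luminescence. Undefined stereocentres denote stereoisomer mixtures.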

[10] = Liver Microsome Stability Assay, rat; assay type: in vitro ADME; settings: rat liver microsomes 1.0 mg/mL, 1.0 uM compound, 37° C., 1 mM NADPH
Outline: as §2

[11] = Flp-In 293 T-REx cells, 24 hours with doxycycline; Table 3; read-out: 24 hr Dox Inducible PD1ssGluc 293FRT/TO: Mean IC50
[12] = Flp-In 293 T-REx cells, 24 hours with doxycycline; Table 3; read-out: 24 hr Dox Inducible Her3(ss + 4)Gluc 293FRT/TO: Mean IC50
[13] = Flp-In 293 T-REx cells, 24 hours with doxycycline; Table 3; read-out: 24 hr Dox Inducible IL2FLGluc 293FRT/TO: Mean IC50
[14] = ratio of IC50s IL2/PD1; Table 3
[15] = Flp-In 293 T-REx cells, 24 hours with doxycycline; Table 3; read-out: 24 hr Dox Inducible TNFaFLGluc 293FRT/TO: Mean IC50
[16] = ratio of IC50s TNF/PD1; Table 3

pEC50 [1]	pIC50 [2, 11]	pIC50 [3, 12]	Liver Microsome Stability (Multiple Species): Monkey - % Remaining after 30 min w/ NADPH (%) [4] [%]	Liver Microsome Stability (Multiple Species): Human - % Remaining after 30 min w/ NADPH (%) [5] [%]	Liver Microsome Stability (Multiple Species): Mouse - % Remaining after 30 min w/ NADPH (%) [6] [%]	pIC50 [7, 13]	pIC50 [8, 15]	pEC50 [9]	Liver Microsome Stability (Multiple Species): Rat - % Remaining after 30 min w/ NADPH (%) [10] [%]	Compound	24 hr Dox Inducible IL2FLGluc 293FRT/TO: IL2/PD1 [7, 14]	24 hr Dox Inducible TNFaFLGluc 293FRT/TO: TNF/PD1 [8, 16]	EC50 ([1]; U-266, 48 h, read-out: 48 hr U266 Viability Celltiter-Glo: Mean EC50 (nM)) [nM]	pIC50 ([2]; read-out: 24 hr Dox Inducible PD1ssGluc 293FRT/TO: Mean IC50; Flp-In 293 T-REx cells, 24 hours with doxycycline; Table 3)	pIC50 ([3]; read-out: 24 hr Dox Inducible Her3(ss + 4)Gluc 293FRT/TO: Mean IC50; Flp-In 293 T-REx cells, 24 hours with doxycycline; Table 3)	pIC50 ([7]; read-out: 24 hr Dox Inducible IL2FLGluc 293FRT/TO: Mean IC50; Flp-In 293 T-REx cells, 24 hours with doxycycline; Table 3)	pIC50 ([8]; read-out: 24 hr Dox Inducible TNFaFLGluc 293FRT/TO: Mean IC50; Flp-In 293 T-REx cells, 24 hours with doxycycline; Table 3)	EC50 ([9]; NCI-H929, 48 h, read-out: 48 hr H929 Viability Celltiter-Glo: Mean EC50 (nM)) [nM]
< 4.60	7.77	6.26	<1	4	20	5.92	5.40	< 4.60	20	O=C(Nc1nc(/C=C/c2ccc(C(F)(F)F)cn2)cs1)c1cccn1Cc1ccnc(F)c1 [Compound B5, (E)-1-((2-fluoropyridin-4-yl)methyl)-N-(4-(2-(5-(trifluoromethyl)pyridin-2-yl)vinyl)thiazol-2-yl)-1H-pyrrole-2-carboxamide]	70	230						
< 4.60	7.51	6.86	24	42	63	6.58	6.35	< 4.60	41	O=C(Nc1nc(/C=C/c2ccc(OC3CC3)cc2F)cs1)c1cccn1Cc1ccnc(F)c1 [Compound B6, (E)-N-(4-(4-cyclopropoxy-2-fluorostyryl)thiazol-2-yl)-1-((2-fluoropyridin-4-yl)methyl)-1H-pyrrole-2-carboxamide]	9	14						
< 4.60	7.52	6.74	6	4	23	6.30	5.40	5.09	13	C/C(=C\c1ccc(C)c(F)n1)c1csc(NC(=O)c2cccn2Cc2ccnc(F)c2)n1 [Compound B7, (E)-N-(4-(1-(6-fluoro-5-methylpyridin-2-yl)prop-1-en-2-yl)thiazol-2-yl)-1-((2-fluoropyridin-4-yl)methyl)-1H-pyrrole-2-carboxamide]	17	134						
< 4.60	7.62	5.93	4	22	11	5.78	4.95	< 4.60	1	O=C(Nc1nc(/C=C/c2ccc(Cl)cn2)cs1)c1cccn1Cc1ccnc(F)c1 [Compound B8, (E)-N-(4-(2-(5-chloropyridin-2-yl)vinyl)thiazol-2-yl)-1-((2-fluoropyridin-4-yl)methyl)-1H-pyrrole-2-carboxamide]	69	462						
4.70	6.79	6.53	1	6	6	6.13	5.40	5.20	4	O=C(Nc1nc(/C=C/[C@H]2CC[C@@H](C(F)(F)F)CC2)cs1)c1cccn1Cc1ccncc1 [Compound B9, 1-(pyridin-4-ylmethyl)-N-(4-((E)-2-((1s,4s)-4-(trifluoromethyl)cyclohexyl)vinyl)thiazol-2-yl)-1H-pyrrole-2-carboxamide]	5	25						
< 4.60	7.39	7.07	11	38	49	6.60	6.00	5.24	5	O=C(Nc1nc(/C=C/[C@H]2CC[C@H](C(F)(F)F)CC2)cs1)c1cccn1Cc1ccncc1 [Compound B10, 1-(pyridin-4-ylmethyl)-N-(4-((E)-2-((1r,4r)-4-(trifluoromethyl)cyclohexyl)vinyl)thiazol-2-yl)-1H-pyrrole-2-carboxamide]	6	25						

Compound	pEC50 [1]	pIC50 [2, 11]	pIC50 [3, 12]	Liver Microsome Stability (Multiple Species): Monkey - % Remaining after 30 min w/ NADPH (%) [4] [%]	Liver Microsome Stability (Multiple Species): Human - % Remaining after 30 min w/ NADPH (%) [5] [%]	Liver Microsome Stability (Multiple Species): Mouse - % Remaining after 30 min w/ NADPH (%) [6] [%]	pIC50 [7, 13]	pIC50 [8, 15]	pEC50 [9]	Liver Microsome Stability (Multiple Species): Rat - % Remaining after 30 min w/ NADPH (%) [10] [%]	24 hr Dox Inducible IL2FLGluc 293FRT/TO: IL2/PD1 [7, 14]	24 hr Dox Inducible TNFaFLGluc 293FRT/TO: TNF/PD1 [8, 16]	EC50 ([1]; U-266, 48 h, read-out: 48 hr U266 Viability Celltiter-Glo: Mean EC50 (nM)) [nM]	pIC50 ([2]; read-out: 24 hr Dox Inducible PD1ssGluc 293FRT/TO: Mean IC50; Flp-In 293 T-REx cells, 24 hours with doxycycline; Table 3)	pIC50 ([3]; read-out: 24 hr Dox Inducible Her3(ss + 4)Gluc 293FRT/TO: Mean IC50; Flp-In 293 T-REx cells, 24 hours with doxycycline; Table 3)	pIC50 ([7]; read-out: 24 hr Dox Inducible IL2FLGluc 293FRT/TO: Mean IC50; Flp-In 293 T-REx cells, 24 hours with doxycycline; Table 3)	pIC50 ([8]; read-out: 24 hr Dox Inducible TNFaFLGluc 293FRT/TO: Mean IC50; Flp-In 293 T-REx cells, 24 hours with doxycycline; Table 3)	EC50 ([9]; NCI-H929, 48 h, read-out: 48 hr H929 Viability Celltiter-Glo: Mean EC50 (nM)) [nM]
Cc1sc(NC(=O)c2cccn2Cc2ccnc(F)c2)nc1/C=C/c1cn(C(C)C)cn1 [Compound B23, (E)-1-((2-fluoropyridin-4-yl)methyl)-N-(4-(2-(1-isopropyl-1H-imidazol-4-yl)vinyl)-5-methylthiazol-2-yl)-1H-pyrrole-2-carboxamide]				1	<1	16				19	>420	>422	> 25000	7.23	5.47	< 4.60	< 4.60	> 25000
